Source: patent US20260240968A1, “METHODS AND MODIFICATIONS FOR REDUCING INNATE IMMUNE RESPONSES TO RNA” (The Board of Trustees of the Leland Stanford Junior …, priority 2023, published 2026)

Experiments:
HEK293 cells [1] = test: Spontaneous restoration of translation of cloaked GFP-mRNA (green fluorescence) in HEK293 cells; conditions: normal cells (HEK293)
Description: (§2) Thus, we investigated whether adducts by N,N-dimethylglycine acylimidazole can spontaneously release within the cells. To explored this, we employed cloaked mRNAs encoding a green fluorescence protein (GFP) (FIG. 6).
We screened these acylimidazole reagents for spontaneous restoration of mRNA translation in HEK293 cells by transfection with d2GFP-mRNA aliquots that were acylated with these acylimidazole reagents at various levels of 2′-modification. We monitored the green fluorescence signal in HEK293 cells over three days.

HEK293 cells [2] = test: Luminex human 48-plex analysis of cytokines and immune activation markers released from HEK293 cells lipofected with eGFP-mRNA with or without cloaking; type: cell-based
Description: As an initial assessment of how cloaking affects the innate immune responses of mRNA, we measured the release of cytokines and immune activation markers from HEK293 cells that were lipofected by eGFP-mRNA with or without cloaking. HEK293 cells were transfected with 2 μg of mRNA with lipofectamine MessengerMax. […] In comparison. […] The translation of eGFP-mRNA was insignificant at this time (6 hours post-transfection), so the release of these immunomodulatory cytokines/chemokines is largely due to cells sensing the mRNA.
We further evaluated the effect of 2′-acylation on long-term immune response with Luminex human 48-plex assays in HEK293 cells that were transfected with modified eGFP-mRNA (FIG. 3 and FIG. 4).
We next investigated whether the chemical structure of acylating reagents may differentially modulate certain innate immune response pathways. […] Because the maximum level of cloaking varied among these reagents, we proceeded to equimolarly cloak at ~50% of unpaired accessible 2′-hydroxyls of eGFP-mRNA with a similar level of modification. We measured the release of cytokines and immune activation markers from HEK293 cells that were lipofected by modified eGFP-mRNA with or without cloaking. HEK293 cells were transfected with 2 μg of mRNA aliquots with lipofectamine MessengerMax. […] Thus, acylating reagents with diverse chemical structures can differentially modulate certain innate immune-responsive pathways.

SW480 cells = conditions: cancerous cells (SW480); cloaked mRNA
Description: as §2

ISG15 = test: RT-qPCR of ISG15 mRNA expression (Type I innate immune response via the RIG-1 pathway) in HEK293 cells lipofected with eGFP-mRNA; type: cell-based, human; conditions: HEK293 lipofected by eGFP-mRNA with or without cloaking by DMG-Im
Excerpt: (§1) Transfection of in vitro transcribed RNA can trigger a potent Type I innate immune response in HEK293 cells (PMID: 30011268). Next, we investigated whether cloaking may modulate such response in HEK293 cells. To do this, HEK293 cells were lipofected by eGFP-mRNA with or without cloaking by DMG-Im. We measured the mRNA expression level of ISG15, an activation marker downstream of Type I innate immune response via the RIG-1 pathway.
as §1, with “DMG-lm.” for “DMG-Im.”

[3] = long-term immune response, HEK293 transfected with modified eGFP-mRNA

Description for HeLa cells: as §2

Which results are given for `CN(C)CC(=O)n1ccnc1` [DMG-Im, N,N-dimethylglycine acylimidazole]?
translation of GFP-mRNA with N,N-dimethylglycine adducts (HEK293 cells [1]): spontaneously restored; expression of some proinflammatory cytokines and immune activation markers over time (HEK293 cells [2]; FIGS. 3A-3B, cloaking by DMG-Im): potently modulates; release of proinflammatory chemokines and cytokines, including VEGF, RANTES/CCL5, PDGFAA, and IL8 (HEK293 cells [2]; HEK293 transfected with 2 μg of eGFP-mRNA, lipofectamine MessengerMax, six hours post-transfection): potently suppressed; expression profiles of immune response mediators including type I interferon, CCL5, IL-8, IL-3, VEGF (HEK293 cells [2]; RNA cloaked with the R group, FIGS. 9 and 10): distinct expression profiles; expression of many mRNA-stimulated cytokines (HEK293 cells [2]; cloaked vs unmodified eGFP-mRNA, six hours post-transfection): not significantly modulated; reduction of the release of proinflammatory cytokines and activation (VEGF, RANTES/CCL5, PDGFAA, IL8) (HEK293 cells [2]; eGFP-mRNA with intermediate cloaking (~50% of unpaired 2′-hydroxyls) vs unmodified, 2 μg, six hours post-transfection): ≤ 90%; release of Granulocyte-macrophage colony-stimulating factor (GMCSF) over time (HEK293 cells [2]; [3]): increasingly suppressed overtime; release of proinflammatory Chemokine ligand 5 (CCL5) over time (HEK293 cells [2]; [3]): increasingly suppressed overtime; secretion of Vascular endothelial growth factor (VEGF) over time (HEK293 cells [2]; [3]): increasingly less suppressed over time; translation of GFP-mRNA with N,N-dimethylglycine adducts (SW480 cells): spontaneously restored; mRNA expression level of ISG15 (ISG15): almost fully suppressed; extension of the translational lifespan of mRNA encoding destabilized green fluorescent protein d2GFP (HeLa cells; HeLa cells, d2GFP-mRNA cloaked with DMG-Im): 31%; translation of GFP-mRNA with N,N-dimethylglycine adducts (HeLa cells; cancerous cells (HeLa), cloaked mRNA): spontaneously restored
